Source: patent US20090005424A9, “Composition and Method for Treating Fibrotic Diseases” (priority 2005, published 2009)
Marks after values point to notes of the source that are not given here.

Experiments:
[1] = system: SD rat, renal interstitial fibrosis induced by surgical ligation of single side ureter; assay: Rat ureter ligation model of renal interstitial fibrosis, AKF-PD vs PFD (Example 12); type: in vivo; details: ureter-ligated rats; PFD 500 mg/kg/d, AKF-PD 500 mg/kg/d by gavage; 14 days post surgery
Experimental: Anti-fibrotic effect of AKF-PD was tested on a SD rat model for renal interstitial fibrosis induced by surgical ligation of single side ureter. Male SD rats (180 g˜220 g) were randomly divided into disease model group, PFD (500 mg/kg/d) group and AKF-PD (500 mg/kg/d) group. […] The respective drugs were administrated by gavage to rats in the groups of PFD and AKF-PD from one day prior to the procedure to 14 days post surgical procedure. Normal saline was administrated in a similar fashion to the rats in the groups of disease model. The animals were sacrificed 14 days after surgical procedure and their kidney were removed for pathological (HE staining) examination.

[2] = Acute oral toxicity in Kun Ming mice, LD50 by Bliss method; details: both sexes, Kun Ming (KM), mouse, in vivo, po
Experimental: Male and female Kun Ming (KM) mice weighing between 18 g-22 g were acquired from the animal facility of Hsiang-Ya Medical College, the Central South University. Fifty Kun Ming mice were randomly assigned into 5 groups with 5 male and 5 female mice for each group. The animals went through fasting with a normal water supply before starting drug treatment (either AKF-PD or PIRFENIDONE). The drug was administrated orally by gavage. The volume of liquid drug was 20 ml/kg body weight. The range of dosage for AKF-PD administrated was from 1071 mg/kg to 6000 mg/kg. The dosage difference between two adjacent doses was 1:0.65 (a dose vs the next lower dose). All animals were maintained under a regular condition. Acute toxic reaction and death within 14 days of post drug treatment were recorded. Autopsy was performed on all dead animals and visual examination was performed on all organs.
LD50 was calculated according to Bliss method. […] The results of Table 15 are very close to those reported in the literature: 997.7 mg/kg (U.S. Pat. No. 5,310,562) and 1112 mg/kg(Pharmaceutical Care and Research 5:4823(2005)).

[3] = system: ICR mice injected with bleomycin; assay: Bleomycin-induced mouse pulmonary fibrosis, histological score of lung tissue; type: in vivo; details: AKF-PD and PFD 500 mg/kg, captopril 12.5 mg/kg by gavage day 1 to 28, Szapiel's method
Experimental: Under regular care condition, 7-10 weeks old, male, institute of cancer research (ICR) mice, weight 28-39 g, were randomly grouped as normal control, disease, disease/AKF-PD, disease/PFD and disease Captopril group.
Control group was injected with normal saline once day from day 2 to 15 days. Disease, disease/AKF-PD, disease/PFD and disease/captopril groups were injected with bleomycin once day from day 2 to 15. Control and disease groups were given 0.5% CMC by gavage once a day from day 1 to day 28. 500 mg/kg of AKF-PD CMC suspension and PD CMC suspension and 12.5 mg/kg captopril in saline were administered to respective groups by gavage once day from day 1 to day 28. All animals were sacrificed on day 29 and their lungs were removed for pathological (HE staining) examination.
Histological scoring for the lung tissue was done according Szapiel's method.

[4] = system: Rat Myocardiac Fibroblasts; assay: MTT proliferation assay, rat myocardiac fibroblasts; type: cell-based
Experimental: In the following examples, myocardiac fibroblasts, skin scar forming fibroblast and human peritoneal mesothelial cells are primary cultures prepared according to common procedure. Other cells are commercially purchased. 1-(3-fluorophenyl)-5-methyl-2(1H)-pyridone (AKF-PD) is prepared as a suspension in 5% carboxymethylcellulose.
(§1) Cell proliferation was measured by MTT assay. DMEM with 10% fetal serum was used as cell culture medium. The cells were prepared in suspension (1×10^5/ml), and 100 μL of the suspension was transferred to each well of a 96 wells plate. Once the cells were attached to the plastic, the culture was changed to serum free medium and incubated for another 24 hours. Then, the serum free medium was aspirated, and various concentrations of 1-(3′-fluorophenyl)-5-methyl-2(1H)-pyridone (AKF-PD) or PIRFENIDONE (PFD) in 10% serum medium were added into each well with 5 replicates for each concentration. The cells were stained with MTT (10 μL per well) at 12, 24, or 48 hours post drug treatment. After 4 hrs of incubation, the medium with MTT was aspirated from each well. One hundred μL MTT solvent was added to each well for 15 min, and the dissolved MTT was measured with a plate reader at 570 nm.

[5] = system: Rat Pulmonary Fibroblasts; assay: MTT proliferation assay, rat pulmonary fibroblasts; type: cell-based; details: for order of inhibitory effect: rat pulmonary fibroblasts
Experimental: as §1, with “(AKF-PD) or 1-(3′-bromophenyl)-5-Methyl-2(1H)-Pyridone or PIRFENIDONE (PFD)” for “(AKF-PD) or PIRFENIDONE (PFD)”, “well) at 24, or” for “well) at 12, 24, or”

Compound | Histological Score for Interstitial Compartment [1] | LD50 at 14 days ([2]; LD50) | LD50 at 14 days ([2]; LD50 95% confidence limit) | Histological Score for Lung Tissue, Mean [3] | Optical Density at 570 nm ([4]; 100 μg/ml, 12 h) | Optical Density at 570 nm ([4]; 100 μg/ml, 24 h) | Optical Density at 570 nm ([4]; 100 μg/ml, 48 h) | Optical Density at 570 nm ([4]; 500 μg/ml, 12 h) | Optical Density at 570 nm ([4]; 500 μg/ml, 24 h) | Optical Density at 570 nm ([4]; 500 μg/ml, 48 h) | Optical Density at 570 nm ([4]; 1000 μg/ml, 12 h) | Optical Density at 570 nm ([4]; 1000 μg/ml, 24 h) | Optical Density at 570 nm ([4]; 1000 μg/ml, 48 h) | Optical Density at 570 nm ([4]; 2500 μg/ml, 12 h) | Optical Density at 570 nm ([4]; 2500 μg/ml, 24 h) | Optical Density at 570 nm ([4]; 2500 μg/ml, 48 h) | Optical Density at 570 nm ([5]; 100 μg/ml, 24 h) | Optical Density at 570 nm ([5]; 100 μg/ml, 48 h) | Optical Density at 570 nm ([5]; 500 μg/ml, 24 h) | Optical Density at 570 nm ([5]; 500 μg/ml, 48 h) | further results
Cc1ccc(=O)n(-c2cccc(F)c2)c1 [AKF-PD, 1-(3′-fluorophenyl)-5-methyl-2(1H)-pyridone] | 7.11 ± 1.38 | 2980 mg/kg | 2400 to 3700 mg/kg | 2.0000 | 0.328 ± 0.010 | 0.426 ± 0.006 | 0.620 ± 0.018 | 0.326 ± 0.003 | 0.408 ± 0.009 | 0.580 ± 0.014 | 0.332 ± 0.006 | 0.392 ± 0.008 | 0.538 ± 0.009 | 0.325 ± 0.008 | 0.377 ± 0.013 | 0.514 ± 0.005 | 0.1467 ± 0.0138 | 0.1369 ± 0.0115 | 0.1258 ± 0.0119 | 0.1214 ± 0.0234 | anti-proliferative potency compared with PIRFENIDONE ([4]; rat myocardiac fibroblasts): more potent anti-proliferative agent than PIRFENIDONE; suppression of proliferation of rat pulmonary fibroblasts [5]: could suppress proliferation of rat pulmonary fibroblasts; Optical Density at 570 nm ([5]; 1000 μg/ml, 24 h): 0.1130 ± 0.0163; Optical Density at 570 nm ([5]; 1000 μg/ml, 48 h): 0.1119 ± 0.0285; order of inhibitory effect [5]: AKF-PD>AKF-BR>pirfenidone
Cc1ccc(=O)n(-c2ccccc2)c1 [PFD, 5-methyl-1-phenyl-2(1H)-pyridone, reference compound] | 8.06 ± 2.41 | 955 mg/kg | 551 to 1660 mg/kg | 2.0909 | 0.330 ± 0.014 | 0.429 ± 0.009 | 0.654 ± 0.007*^+ | 0.329 ± 0.013 | 0.411 ± 0.006 | 0.612 ± 0.014***^++ | 0.331 ± 0.009 | 0.403 ± 0.010**^+ | 0.597 ± 0.013***^+++ | 0.329 ± 0.008 | 0.392 ± 0.009**^+ | 0.566 ± 0.027 | 0.2023 ± 0.0169 | 0.1864 ± 0.0530 | 0.1887 ± 0.0130 | 0.1459 ± 0.0255 | Optical Density at 570 nm ([5]; 1000 μg/ml, 24 h): 0.1797 ± 0.0166; Optical Density at 570 nm ([5]; 1000 μg/ml, 48 h): 0.1269 ± 0.0302; order of inhibitory effect [5]: AKF-PD>AKF-BR>pirfenidone
